Source: paper PMC9404711 (Antibiotics, 2022)
Like-named read-outs stand apart in the source and are kept apart here. Non-standard residues stand in square brackets, D forms with d. Residues, ends and D or L forms follow the SMILES beside them. *: point of attachment. Myristoyl = CCCCCCCCCCCCCC(=O)*; Lauroyl = CCCCCCCCCCCC(=O)*; Decanoyl = CCCCCCCCCC(=O)*; Octanoyl = CCCCCCCC(=O)*

What was measured:
S. aureus (ATCC 29213) = test: MIC determination, broth microdilution; type: cell-based, Staphylococcus aureus; settings: S. aureus ATCC 29213, MHB-II, 37 °C, 18–24 h, triplicate
Procedure: (§1) The following bacteria were grown in cation-adjusted Muller-Hinton broth at 37 °C with shaking: A. baumannii (ATCC 19606), E. coli (ATCC 25922), K. pneumoniae (ATCC 13883), P. aeruginosa (ATCC 27853), and S. aureus (ATCC 29213).
(§2) The MIC experiments were performed in triplicate, as described in Jensen et al.. Briefly, all peptide stock solutions were prepared by dissolving each peptide in Milli-Q water to obtain a concentration of 10 mg/mL. A bacterial concentration of 10^6 CFU/mL was obtained through the dilution of an overnight culture (MHB-II medium). When the overnight culture was prepared, the OD was measured using a spectrophotometer and when an OD value between 0.2 and 0.4 was obtained, the culture was diluted to OD = 0.002. The MIC determination was carried out in 96-well polypropylene microtitre plates. […] A final bacterial inoculum of 5 × 10^5 CFU/mL per well was obtained by adding 50 μL bacterial suspension to the microtiter plates. The plates were incubated at 37 °C for 18–24 h. To verify the CFU, 10 μL of bacteria suspension was transferred to 990 μL 0.9 % saline solution, from which a 10-fold dilution was carried out. Then, 100 μL of the dilution was plated on an LB plate and left for bacterial growth overnight at 37 °C. Colistin and vancomycin were used as the positive controls.

E. coli (ATCC 25922) = type: cell-based, Escherichia coli; settings: E. coli ATCC 25922, MHB-II, 37 °C, 18–24 h, triplicate
Procedure: as §1, §2

[1] = system: K. pneumoniae (ATCC 13883); type: cell-based, Klebsiella pneumoniae; settings: K. pneumoniae ATCC 13883, MHB-II, 37 °C, 18–24 h, triplicate
Procedure: as §1, §2

[2] = system: A. baumannii (ATCC 19606); type: cell-based, Acinetobacter baumannii; settings: A. baumannii ATCC 19606, MHB-II, 37 °C, 18–24 h, triplicate
Procedure: as §1, §2

[3] = system: P. aeruginosa (ATCC 27853); type: cell-based, Pseudomonas aeruginosa; settings: P. aeruginosa ATCC 27853, MHB-II, 37 °C, 18–24 h, triplicate
Procedure: as §1, §2

[4] = Hydrophobicity by analytical RP-HPLC (%B at elution); type: physicochemical; settings: chromatographic, analytical reversed-phase HPLC, Waters Symmetry C18 5 μm 4.6 × 250 mm; A: H2O + 0.1% TFA, B: 90:10 ACN-H2O + 0.1% TFA
Procedure: Peptide purity was determined as described previously by analytical RP-HPLC using a Waters 717 plus Autosampler, In-line Degasser AF, 600 Controller, and 2996 Photodiode Array Detector; the column used was a Waters Symmetry C18 column (5 μm, 4.6 mm × 250 mm, Milford, MA, USA). An aqueous acetonitrile (ACN) gradient with 0.1% TFA added (mixing eluent A: H2O + 0.1% TFA and eluent B: 90:10 ACN-H2O + 0.1% TFA) was employed using milli-Q water. Preparative RP-HPLC was performed by using a Waters XSelect Peptide CSH C18 OBDTM column (5 μm, 19 mm × 250 mm, Milford, MA, USA) with the same eluents as for analytical HPLC.
*Hydrophobicity as indicated by the percentage of mobile phase B (%B) at the peak elution time on analytical

human erythrocytes = settings: 150 μM peptide; 0.5% (v/v) red blood cell suspension in PBS, 1 h at 37 °C, absorbance 414 nm; melittin positive control, PBS negative control; three wells

## CCCCCCCC(=O)N[C@H](CCCCN)C(=O)N[C@H](CCCCN)C(=O)N[C@H](CC(C)C)C(=O)N[C@H](Cc1ccccc1)C(=O)N[C@H](CCCCN)C(=O)N[C@H](CCCCN)C(=O)N[C@@H](C(=O)N[C@H](CC(C)C)C(=O)N[C@H](CCCNC(=N)N)C(=O)N[C@H](Cc1ccc(O)cc1)C(=O)N[C@H](CC(C)C)C(N)=O)[C@H](C)CC [compound 3] (Octanoyl-[dK][dK][dL][dF][dK][dK][dI][dL][dR][dY][dL]-NH2)
S. aureus (ATCC 29213); value in brackets
  MIC SA: 40.1 µM
E. coli (ATCC 25922); inoculum 5 × 10^5 CFU/mL
  MIC EC: 16 µg/mL
E. coli (ATCC 25922); value in brackets
  MIC EC: 10.2 µM
[1]; inoculum 5 × 10^5 CFU/mL
  MIC KP: 8 µg/mL
[1]; value in brackets
  MIC KP: 5.1 µM
[2]; inoculum 5 × 10^5 CFU/mL
  MIC AB: 4 µg/mL
[2]; value in brackets
  MIC AB: 2.5 µM
[3]; inoculum 5 × 10^5 CFU/mL
  MIC PA: 32 µg/mL
[3]; value in brackets
  MIC PA: 20.3 µM
[4]
  %B (hydrophobicity: percentage of mobile phase B at the peak elution time): 64.1 %B
Human erythrocytes
  % hemolysis of human erythrocytes: 100%

## CCCCCCCCCC(=O)N[C@H](CCCCN)C(=O)N[C@H](CCCCN)C(=O)N[C@H](CC(C)C)C(=O)N[C@H](Cc1ccccc1)C(=O)N[C@H](CCCCN)C(=O)N[C@H](CCCCN)C(=O)N[C@@H](C(=O)N[C@H](CC(C)C)C(=O)N[C@H](CCCNC(=N)N)C(=O)N[C@H](Cc1ccc(O)cc1)C(=O)N[C@H](CC(C)C)C(N)=O)[C@H](C)CC [compound 4] (Decanoyl-[dK][dK][dL][dF][dK][dK][dI][dL][dR][dY][dL]-NH2)
S. aureus (ATCC 29213); inoculum 5 × 10^5 CFU/mL
  MIC SA: 32 µg/mL
S. aureus (ATCC 29213); value in brackets
  MIC SA: 20.0 µM
E. coli (ATCC 25922); inoculum 5 × 10^5 CFU/mL
  MIC EC: 32 µg/mL
E. coli (ATCC 25922); value in brackets
  MIC EC: 20.0 µM
[1]; inoculum 5 × 10^5 CFU/mL
  MIC KP: 32 µg/mL
[1]; value in brackets
  MIC KP: 20.0 µM
[2]; inoculum 5 × 10^5 CFU/mL
  MIC AB: 32 µg/mL
[2]; value in brackets
  MIC AB: 20.0 µM
[3]; inoculum 5 × 10^5 CFU/mL
  MIC PA: 32 µg/mL
[3]; value in brackets
  MIC PA: 20.0 µM
[4]
  %B (hydrophobicity: percentage of mobile phase B at the peak elution time): 85.0 %B
Human erythrocytes
  % hemolysis of human erythrocytes: 100%

## CCCCCCCCCCCC(=O)N[C@H](CCCCN)C(=O)N[C@H](CCCCN)C(=O)N[C@H](CC(C)C)C(=O)N[C@H](Cc1ccccc1)C(=O)N[C@H](CCCCN)C(=O)N[C@H](CCCCN)C(=O)N[C@@H](C(=O)N[C@H](CC(C)C)C(=O)N[C@H](CCCNC(=N)N)C(=O)N[C@H](Cc1ccc(O)cc1)C(=O)N[C@H](CC(C)C)C(N)=O)[C@H](C)CC [compound 5] (Lauroyl-[dK][dK][dL][dF][dK][dK][dI][dL][dR][dY][dL]-NH2)
S. aureus (ATCC 29213); inoculum 5 × 10^5 CFU/mL
  MIC SA: 64 µg/mL
S. aureus (ATCC 29213); value in brackets
  MIC SA: 39.2 µM
E. coli (ATCC 25922); inoculum 5 × 10^5 CFU/mL
  MIC EC: 64 µg/mL
E. coli (ATCC 25922); value in brackets
  MIC EC: 39.2 µM
[1]; inoculum 5 × 10^5 CFU/mL
  MIC KP: 64 µg/mL
[1]; value in brackets
  MIC KP: 39.2 µM
[2]; inoculum 5 × 10^5 CFU/mL
  MIC AB: 64 µg/mL
[2]; value in brackets
  MIC AB: 39.2 µM
[3]; inoculum 5 × 10^5 CFU/mL
  MIC PA: 64 µg/mL
[3]; value in brackets
  MIC PA: 39.2 µM
[4]
  %B (hydrophobicity: percentage of mobile phase B at the peak elution time): 90.5 %B
Human erythrocytes
  % hemolysis of human erythrocytes: 100%

## CCCCCCCCCCCCCC(=O)N[C@H](CCCCN)C(=O)N[C@H](CCCCN)C(=O)N[C@H](CC(C)C)C(=O)N[C@H](Cc1ccccc1)C(=O)N[C@H](CCCCN)C(=O)N[C@H](CCCCN)C(=O)N[C@@H](C(=O)N[C@H](CC(C)C)C(=O)N[C@H](CCCNC(=N)N)C(=O)N[C@H](Cc1ccc(O)cc1)C(=O)N[C@H](CC(C)C)C(N)=O)[C@H](C)CC [compound 6] (Myristoyl-[dK][dK][dL][dF][dK][dK][dI][dL][dR][dY][dL]-NH2)
S. aureus (ATCC 29213); inoculum 5 × 10^5 CFU/mL
  MIC SA: > 64 µg/mL
E. coli (ATCC 25922); inoculum 5 × 10^5 CFU/mL
  MIC EC: > 64 µg/mL
E. coli (ATCC 25922); value in brackets
  MIC EC: > 38.6 µM
[1]; inoculum 5 × 10^5 CFU/mL
  MIC KP: > 64 µg/mL
[1]; value in brackets
  MIC KP: > 38.6 µM
[2]; inoculum 5 × 10^5 CFU/mL
  MIC AB: > 64 µg/mL
[2]; value in brackets
  MIC AB: > 38.6 µM
[3]; inoculum 5 × 10^5 CFU/mL
  MIC PA: > 64 µg/mL
[3]; value in brackets
  MIC PA: > 38.6 µM
[4]
  %B (hydrophobicity: percentage of mobile phase B at the peak elution time): 96.5 %B
Human erythrocytes
  % hemolysis of human erythrocytes: 100%
